Molecular target: CDK12/CycK (Homo sapiens, UniProt Q9NYV4)
Assay: CDK12/CycK high ATP kinase assay (TR-FRET, 2 mM ATP)
Assay type: biochemical
Details: 2 mM ATP (high ATP); median; read-out: CDK12/CyclinK, 2 mM ATP (high ATP), IC50-[mol/l] (median)
Procedure, shortened: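 His-tagged human CDK12/CycK (~0.75 nM) pre-incubated 15 min with compound, then 60 min at 22 °C with 2 mM ATP and 1 µM biotinylated peptide (HEPES pH 7.5, 20 mM MgCl2). EDTA stop; phospho-Ser62 antibody/Eu anti-rabbit and streptavidin-XL665 TR-FRET, 665/620 nm ratio normalised to give IC50.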

Chain of CDK12/CycK (Q9NYV4 with tags, fused parts or gaps): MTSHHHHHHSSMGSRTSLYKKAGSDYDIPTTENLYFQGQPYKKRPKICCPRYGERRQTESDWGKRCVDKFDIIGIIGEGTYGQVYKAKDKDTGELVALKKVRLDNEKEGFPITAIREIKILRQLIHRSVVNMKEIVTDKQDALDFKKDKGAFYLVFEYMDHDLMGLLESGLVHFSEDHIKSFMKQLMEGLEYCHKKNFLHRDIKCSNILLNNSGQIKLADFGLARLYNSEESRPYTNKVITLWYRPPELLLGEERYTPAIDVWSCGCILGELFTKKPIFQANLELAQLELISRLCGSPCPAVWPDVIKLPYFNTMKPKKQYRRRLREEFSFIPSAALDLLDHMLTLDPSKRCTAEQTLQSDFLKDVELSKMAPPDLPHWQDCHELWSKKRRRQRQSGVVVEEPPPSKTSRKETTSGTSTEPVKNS
Chain of CDK12/CycK (O75909 1-300 partner limits assumed): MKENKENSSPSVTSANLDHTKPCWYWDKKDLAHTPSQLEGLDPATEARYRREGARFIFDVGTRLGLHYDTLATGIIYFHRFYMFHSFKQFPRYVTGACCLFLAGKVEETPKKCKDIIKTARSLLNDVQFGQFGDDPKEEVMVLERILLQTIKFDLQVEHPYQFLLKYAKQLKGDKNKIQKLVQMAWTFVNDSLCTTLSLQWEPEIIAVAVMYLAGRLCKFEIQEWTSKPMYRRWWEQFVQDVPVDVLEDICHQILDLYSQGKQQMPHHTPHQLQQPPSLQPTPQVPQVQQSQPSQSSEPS

Row | Compound | IC50
1 | CC(C)c1cnn2c(NCc3ncc(-c4ccccc4)[nH]3)nc(N3CCCCC3)nc12 [Example 36, N-[(5-phenyl-1H-imidazol-2-yl)methyl]-2-(piperidin-1-yl)-8-(propan-2-yl)pyrazolo[1,5-a][1,3,5]triazin-4-amine] | > 20 µM
2 | CN(C)CCOc1nc(NCc2nc3ccccc3[nH]2)n2ncc(Br)c2n1 [Example 399, N-[(1H-benzimidazol-2-yl)methyl]-8-bromo-2-[2-(dimethylamino)ethoxy]pyrazolo[1,5-a][1,3,5]triazin-4-amine] | > 20 µM
3 | NCCOCCOCCNc1nc(NCc2nc3ccccc3[nH]2)n2ncc(Br)c2n1 [Example 412, N2-{2-[2-(2-aminoethoxy)ethoxy]ethyl}-N4-[(1H-benzimidazol-2-yl)methyl]-8-bromopyrazolo[1,5-a][1,3,5]triazine-2,4-diamine] | > 5.71 µM
4 | CC(C)c1cnn2c(NCc3nnc(-c4ccccc4)[nH]3)nc(N3CCN(C)CC3)nc12 [Example 37, 2-(4-methylpiperazin-1-yl)-N-[(5-phenyl-4H-1,2,4-triazol-3-yl)methyl]-8-(propan-2-yl)pyrazolo[1,5-a][1,3,5]triazin-4-amine] | > 20 µM
5 | COc1cccc2nc(CNc3nc(N4CCN(C)CC4)nc4c(-c5nccs5)cnn34)[nH]c12 [Example 416, N-[(7-methoxy-1H-benzimidazol-2-yl)methyl]-2-(4-methylpiperazin-1-yl)-8-(1,3-thiazol-2-yl)pyrazolo[1,5-a][1,3,5]triazin-4-amine] | > 20 µM
6 | Cc1cnn2c(NCc3nc4ccccc4[nH]3)nc(N(C)CC(C)(C)O)nc12 [Example 397, 1-[(4-{[(1H-benzimidazol-2-yl)methyl]amino}-8-methylpyrazolo[1,5-a][1,3,5]triazin-2-yl)(methyl)amino]-2-methylpropan-2-ol] | > 17.5 µM
7 | CC(C)COc1nc(NCc2nc3ccccc3[nH]2)n2ncc(Br)c2n1 [Example 409, N-[(1H-benzimidazol-2-yl)methyl]-8-bromo-2-(2-methylpropoxy)pyrazolo[1,5-a][1,3,5]triazin-4-amine] | > 15.8 µM
8 | Cc1cnn2c(NCc3nc4c(F)c(F)ccc4[nH]3)nc(N3CC4CCC(C3)N4)nc12 [Example 400, 2-(3,8-diazabicyclo[3.2.1]octan-3-yl)-N-[(4,5-difluoro-1H-benzimidazol-2-yl)methyl]-8-methylpyrazolo[1,5-a][1,3,5]triazin-4-amine] | > 16.7 µM
9 | Brc1cnn2c(NCc3nc4ccccc4[nH]3)nc(OCCN3CCCC3)nc12 [Example 404, N-[(1H-benzimidazol-2-yl)methyl]-8-bromo-2-[2-(pyrrolidin-1-yl)ethoxy]pyrazolo[1,5-a][1,3,5]triazin-4-amine] | > 20 µM
10 | CCNc1nc(NCc2ncc(-c3ccccc3)[nH]2)n2ncc(C(C)C)c2n1 [Example 34, N^2-ethyl-N^4-[(5-phenyl-1H-imidazol-2-yl)methyl]-8-(propan-2-yl)pyrazolo[1,5-a][1,3,5]triazine-2,4-diamine] | > 5.71 µM
11 | CN1CCN(c2nc(NCc3nc4c(F)c(F)ccc4[nH]3)n3ncc(-c4nccs4)c3n2)CC1 [Example 415, N-[(4,5-difluoro-1H-benzimidazol-2-yl)methyl]-2-(4-methylpiperazin-1-yl)-8-(1,3-thiazol-2-yl)pyrazolo[1,5-a][1,3,5]triazin-4-amine] | > 20 µM
12 | CC(C)c1cnn2c(NCc3ncc(-c4ccccc4)[nH]3)nc(N(C)CC(C)(C)O)nc12 [Example 35, 2-methyl-1-{methyl[4-{[(5-phenyl-1H-imidazol-2-yl)methyl]amino}-8-(propan-2-yl)pyrazolo[1,5-a][1,3,5]triazin-2-yl]amino}propan-2-ol] | 2.21 µM
13 | Brc1cnn2c(NCc3nc4ccccc4[nH]3)nc(OC3CCCCC3)nc12 [Example 406, N-[(1H-benzimidazol-2-yl)methyl]-8-bromo-2-(cyclohexyloxy)pyrazolo[1,5-a][1,3,5]triazin-4-amine] | > 20 µM
14 | COC(C)(C)COc1nc(NCc2nc3ccccc3[nH]2)n2ncc(Br)c2n1 [Example 403, N-[(1H-benzimidazol-2-yl)methyl]-8-bromo-2-(2-methoxy-2-methylpropoxy)pyrazolo[1,5-a][1,3,5]triazin-4-amine] | > 20 µM
15 | COc1ccccc1-c1nnc(CNc2nc(N3CCN(C)CC3)nc3c(C4CC4(F)F)cnn23)[nH]1 (centres unmarked) [Example 430, 8-(2,2-difluorocyclopropyl)-N-{[5-(2-methoxyphenyl)-4H-1,2,4-triazol-3-yl]methyl}-2-(4-methylpiperazin-1-yl)pyrazolo[1,5-a][1,3,5]triazin-4-amine] | > 20 µM
16 | Cc1cnn2c(NCc3nc4ccccc4[nH]3)nc(N3CC4CCC(C3)N4)nc12 [Example 401, N-[(1H-benzimidazol-2-yl)methyl]-2-(3,8-diazabicyclo[3.2.1]octan-3-yl)-8-methylpyrazolo[1,5-a][1,3,5]triazin-4-amine] | > 20 µM
17 | Brc1cnn2c(NCc3nc4ccccc4[nH]3)nc(OCC3CC3)nc12 [Example 408, N-[(1H-benzimidazol-2-yl)methyl]-8-bromo-2-(cyclopropylmethoxy)pyrazolo[1,5-a][1,3,5]triazin-4-amine] | > 20 µM
18 | CCNc1nc(NCc2nnc(-c3ccccc3)[nH]2)n2ncc(C(C)C)c2n1 [Example 38, N^2-ethyl-N^4-[(5-phenyl-4H-1,2,4-triazol-3-yl)methyl]-8-(propan-2-yl)pyrazolo[1,5-a][1,3,5]triazine-2,4-diamine] | > 5.71 µM
19 | Cc1cnn2c(NCc3nc4c(F)c(F)ccc4[nH]3)nc(N3CCN(C)CC3)nc12 [Example 394, N-[(4,5-difluoro-1H-benzimidazol-2-yl)methyl]-8-methyl-2-(4-methylpiperazin-1-yl)pyrazolo[1,5-a][1,3,5]triazin-4-amine] | > 18.7 µM

The next lines start with the values.

Row | IC50 | Compound
20 | > 12.9 µM | FC(F)n1cc(-c2cnn3c(NCc4nc5cc(Cl)c(Cl)cc5[nH]4)nc(N4CCOCC4)nc23)cn1 [Example 423, N-[(5,6-dichloro-1H-benzimidazol-2-yl)methyl]-8-[1-(difluoromethyl)-1H-pyrazol-4-yl]-2-(morpholin-4-yl)pyrazolo[1,5-a][1,3,5]triazin-4-amine]
21 | 3.95 µM | COc1cccc2nc(CNc3nc(N4CCOCC4)nc4c(-c5ccnnc5)cnn34)[nH]c12.O=C(O)C(F)(F)F [Example 439, trifluoroacetic acid N-[(7-methoxy-1H-benzimidazol-2-yl)methyl]-2-(morpholin-4-yl)-8-(pyridazin-4-yl)pyrazolo[1,5-a][1,3,5]triazin-4-amine]
22 | > 20 µM | Brc1cnn2c(NCc3nc4ccccc4[nH]3)nc(OC3CCOCC3)nc12 [Example 405, N-[(1H-benzimidazol-2-yl)methyl]-8-bromo-2-[(oxan-4-yl)oxy]pyrazolo[1,5-a][1,3,5]triazin-4-amine]
23 | > 20 µM | Cc1cnn2c(NCc3nc4ccccc4[nH]3)nc(N3CCOCC3)nc12 [Example 393, N-[(1H-benzimidazol-2-yl)methyl]-8-methyl-2-(morpholin-4-yl)pyrazolo[1,5-a][1,3,5]triazin-4-amine]
24 | > 20 µM | Clc1cc2nc(CNc3nc(N4CCOCC4)nc4c(-c5cscn5)cnn34)[nH]c2cc1Cl [Example 424, N-[(5,6-dichloro-1H-benzimidazol-2-yl)methyl]-2-(morpholin-4-yl)-8-(1,3-thiazol-4-yl)pyrazolo [1,5-a][1,3,5]triazin-4-amine]
25 | > 20 µM | Cc1cnn2c(NCc3nc4ccccc4[nH]3)nc(N3CCN(C)CC3)nc12 [Example 396, N-[(1H-benzimidazol-2-yl)methyl]-8-methyl-2-(4-methylpiperazin-1-yl)pyrazolo[1,5-a][1,3,5]triazin-4-amine]
26 | > 20 µM | Clc1cc2nc(CNc3nc(N4CCOCC4)nc4c(-c5ccnnc5)cnn34)[nH]c2cc1Cl.O=C(O)C(F)(F)F [Example 440, trifluoroacetic acid N-[(5,6-dichloro-1H-benzimidazol-2-yl)methyl]-2-(morpholin-4-yl)-8-(pyridazin-4-yl)pyrazolo[1,5-a][1,3,5]triazin-4-amine]
27 | 8.58 µM | FC(F)n1cc(-c2cnn3c(NCc4nc5ccccc5[nH]4)nc(N4CCOCC4)nc23)cn1 [Example 421, N-[(1H-benzimidazol-2-yl)methyl]-8-[1-(difluoromethyl)-1H-pyrazol-4-yl]-2-(morpholin-4-yl)pyrazolo[1,5-a][1,3,5]triazin-4-amine]
28 | > 20 µM | CN1CCN(c2nc(NCc3nc4cc(Cl)c(Cl)cc4[nH]3)n3ncc(-c4cnn(C)c4)c3n2)CC1 [Example 420, N-[(5,6-dichloro-1H-benzimidazol-2-yl)methyl]-2-(4-methylpiperazin-1-yl)-8-(1-methyl-1H-pyrazol-4-yl)pyrazolo[1,5-a][1,3,5]triazin-4-amine]
29 | > 5.71 µM | Fc1ccc(-c2nnc(CNc3nc(N4CCOCC4)nc4c(Br)cnn34)[nH]2)c(F)c1 [Example 41, 8-bromo-N-{[5-(2,4-difluorophenyl)-4H-1,2,4-triazol-3-yl]methyl}-2-(morpholin-4-yl)pyrazolo[1,5-a][1,3,5]triazin-4-amine]
30 | > 5.71 µM | COc1cccc2[nH]c(CNc3nc(N4CCOCC4)nc4c(-c5nccs5)cnn34)nc12 [Example 414, N-[(4-methoxy-1H-benzimidazol-2-yl)methyl]-2-(morpholin-4-yl)-8-(1,3-thiazol-2-yl)pyrazolo [1,5-a][1,3,5]triazin-4-amine]
31 | > 7.86 µM | O=C(O)C(F)(F)F.c1ccc2[nH]c(CNc3nc(N4CCOCC4)nc4c(-c5ccnnc5)cnn34)nc2c1 [Example 438, trifluoroacetic acid N-[(1H-benzimidazol-2-yl)methyl]-2-(morpholin-4-yl)-8-(pyridazin-4-yl)pyrazolo[1,5-a][1,3,5]triazin-4-amine]
32 | 5.23 µM | CC(C)c1cnn2c(NCc3nnc(-c4ccccc4)[nH]3)nc(N3CCOCC3)nc12 [Example 33, 2-(morpholin-4-yl)-N-[(5-phenyl-4H-1,2,4-triazol-3-yl)methyl]-8-(propan-2-yl)pyrazolo[1,5-a][1,3,5]triazin-4-amine]
